Test results published in article PMC12262620 (bioRxiv, 2025).

Key:
LgBiT-eIF4E cells = assay: CellTiter-Glo cell viability assay; type: cell-based, human; conditions: 6-hour treatment, at the concentrations tested
[1] = target: eIF4E binding to m^7GTP RNA substrate (Homo sapiens, UniProt P06730); assay: cell-based; conditions: 6-hour treatment
His10-eIF4E = His10-eIF4E (human, UniProt P06730 1-217); assay: FP competition
[2] = IC50 in CRISPR RiPCA, read at 24 hours
[3] = IC50 values as 95% confidence intervals, CRISPR RiPCA

Chain of eIF4E binding to m^7GTP RNA substrate (P06730 whole entry): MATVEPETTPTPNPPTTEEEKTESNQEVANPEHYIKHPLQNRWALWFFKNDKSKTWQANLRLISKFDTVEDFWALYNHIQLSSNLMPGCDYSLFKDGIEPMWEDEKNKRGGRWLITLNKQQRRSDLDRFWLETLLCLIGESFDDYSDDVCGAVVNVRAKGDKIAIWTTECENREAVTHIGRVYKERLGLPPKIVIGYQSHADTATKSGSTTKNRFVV
Chain of His10-eIF4E (P06730 whole entry): as above

Molecule | cell viability / cell death (LgBiT-eIF4E cells) | IC50 [1, 2] [nM] | IC50 [1, 3] [nM] | binding result (His10-eIF4E)
O=C(O)C(Cc1ccccc1[N+](=O)[O-])=NNc1nc(-c2ccc(Cl)c(Cl)c2)cs1 (mixture of isomers) [4EGI-1] | Absence of viability defects |  |  | 
Cc1cc(-c2cc(Cl)ccc2OCCn2c(C)nc3cc(C(F)(F)F)cc(C#N)c3c2=O)c2scc(C(=O)O)c2n1 [compound 2] |  | 124 | 91 to 171 | 
CO[C@H]1C[C@@H]2CC[C@@H](C)[C@@](O)(O2)C(=O)C(=O)N2CCCC[C@H]2C(=O)O[C@H]([C@H](C)C[C@@H]2CC[C@@H](O)[C@H](OC)C2)CC(=O)[C@H](C)/C=C(\C)[C@@H](O)[C@@H](OC)C(=O)[C@H](C)C[C@H](C)/C=C/C=C/C=C/1C [rapamycin] | Absence of viability defects | 4700 | 1900 to 11000 | 
GCUUCAAGAU (ssRNA, no cap; 3' C6 amine) [G RNA (uncapped)] |  |  |  | no binding
